{
  "source": "ChEMBL document CHEMBL3758169",
  "about": "“4-Aminoindazolyl-dihydrofuro[3,4-d]pyrimidines as non-covalent inhibitors of mutant epidermal growth factor receptor tyrosine kinase” (Bioorg Med Chem Lett, 2016)",
  "key": {"[1]": {"biological_target": "Mitogen-activated protein kinase kinase kinase kinase 2 (Homo sapiens) (UniProt Q12851)", "assay": "Inhibition of GCK (unknown origin) at 100 nM"}, "[2]": {"biological_target": "RAC-gamma serine/threonine-protein kinase (Homo sapiens) (UniProt Q9Y243)", "assay": "Inhibition of AKT3 (unknown origin) at 100 nM"}, "[3]": {"biological_target": "Protein-tyrosine kinase 6 (Homo sapiens) (UniProt Q13882)", "assay": "Inhibition of BRK (unknown origin) at 100 nM"}, "[4]": {"biological_target": "Aurora kinase A (Homo sapiens) (UniProt O14965)", "sequence (O14965 whole entry)": "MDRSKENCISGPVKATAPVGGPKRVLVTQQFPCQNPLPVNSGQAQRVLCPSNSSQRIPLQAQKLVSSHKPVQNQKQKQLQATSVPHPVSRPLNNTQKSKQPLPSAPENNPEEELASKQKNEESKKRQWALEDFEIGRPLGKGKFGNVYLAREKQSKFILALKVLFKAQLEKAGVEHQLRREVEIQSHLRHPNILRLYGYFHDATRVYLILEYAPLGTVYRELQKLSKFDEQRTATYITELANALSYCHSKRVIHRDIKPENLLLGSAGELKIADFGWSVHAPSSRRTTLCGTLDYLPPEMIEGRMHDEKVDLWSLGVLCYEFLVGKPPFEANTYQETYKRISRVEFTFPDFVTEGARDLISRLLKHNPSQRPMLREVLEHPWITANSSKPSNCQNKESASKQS", "assay": "Inhibition of Aurora A (unknown origin) at 100 nM"}, "[5]": {"biological_target": "MAP/microtubule affinity-regulating kinase 3 (Homo sapiens) (UniProt P27448)", "assay": "Inhibition of MARK3 (unknown origin) at 100 nM"}, "[6]": {"biological_target": "Serine/threonine-protein kinase WNK2 (Homo sapiens) (UniProt Q9Y3S1)", "assay": "Inhibition of WNK2 (unknown origin) at 100 nM"}, "[7]": {"biological_target": "Aurora kinase C (Homo sapiens) (UniProt Q9UQB9)", "assay": "Inhibition of Aurora C (unknown origin) at 100 nM"}, "[8]": {"biological_target": "Serine/threonine-protein kinase PLK1 (Homo sapiens) (UniProt P53350)", "assay": "Inhibition of PLK1 (unknown origin) at 100 nM"}, "[9]": {"biological_target": "Receptor-interacting serine/threonine-protein kinase 2 (Homo sapiens) (UniProt O43353)", "assay": "Inhibition of RIPK2 (unknown origin) at 100 nM"}, "[10]": {"biological_target": "Tyrosine-protein kinase Lyn (Homo sapiens) (UniProt P07948)", "sequence (P07948 2-512 limits assumed)": "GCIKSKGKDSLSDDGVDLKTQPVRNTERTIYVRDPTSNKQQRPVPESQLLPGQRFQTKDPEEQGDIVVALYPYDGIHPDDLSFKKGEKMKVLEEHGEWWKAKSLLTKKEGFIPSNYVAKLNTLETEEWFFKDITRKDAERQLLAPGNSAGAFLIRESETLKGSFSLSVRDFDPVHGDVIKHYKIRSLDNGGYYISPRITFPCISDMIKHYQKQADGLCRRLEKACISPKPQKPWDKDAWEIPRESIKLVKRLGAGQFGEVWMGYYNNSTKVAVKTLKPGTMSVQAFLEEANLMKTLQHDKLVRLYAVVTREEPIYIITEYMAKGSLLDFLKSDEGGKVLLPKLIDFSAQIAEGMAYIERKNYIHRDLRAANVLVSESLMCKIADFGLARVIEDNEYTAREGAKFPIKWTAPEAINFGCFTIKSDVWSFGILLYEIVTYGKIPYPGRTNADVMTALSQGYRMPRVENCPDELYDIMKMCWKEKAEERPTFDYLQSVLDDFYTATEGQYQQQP", "assay": "Inhibition of LYNB (unknown origin) at 100 nM"}, "[11]": {"system": "Leucine-rich repeat serine/threonine-protein kinase 2 (Homo sapiens), Q5S007 [G2019S]", "sequence (Q5S007 whole entry G2019S)": "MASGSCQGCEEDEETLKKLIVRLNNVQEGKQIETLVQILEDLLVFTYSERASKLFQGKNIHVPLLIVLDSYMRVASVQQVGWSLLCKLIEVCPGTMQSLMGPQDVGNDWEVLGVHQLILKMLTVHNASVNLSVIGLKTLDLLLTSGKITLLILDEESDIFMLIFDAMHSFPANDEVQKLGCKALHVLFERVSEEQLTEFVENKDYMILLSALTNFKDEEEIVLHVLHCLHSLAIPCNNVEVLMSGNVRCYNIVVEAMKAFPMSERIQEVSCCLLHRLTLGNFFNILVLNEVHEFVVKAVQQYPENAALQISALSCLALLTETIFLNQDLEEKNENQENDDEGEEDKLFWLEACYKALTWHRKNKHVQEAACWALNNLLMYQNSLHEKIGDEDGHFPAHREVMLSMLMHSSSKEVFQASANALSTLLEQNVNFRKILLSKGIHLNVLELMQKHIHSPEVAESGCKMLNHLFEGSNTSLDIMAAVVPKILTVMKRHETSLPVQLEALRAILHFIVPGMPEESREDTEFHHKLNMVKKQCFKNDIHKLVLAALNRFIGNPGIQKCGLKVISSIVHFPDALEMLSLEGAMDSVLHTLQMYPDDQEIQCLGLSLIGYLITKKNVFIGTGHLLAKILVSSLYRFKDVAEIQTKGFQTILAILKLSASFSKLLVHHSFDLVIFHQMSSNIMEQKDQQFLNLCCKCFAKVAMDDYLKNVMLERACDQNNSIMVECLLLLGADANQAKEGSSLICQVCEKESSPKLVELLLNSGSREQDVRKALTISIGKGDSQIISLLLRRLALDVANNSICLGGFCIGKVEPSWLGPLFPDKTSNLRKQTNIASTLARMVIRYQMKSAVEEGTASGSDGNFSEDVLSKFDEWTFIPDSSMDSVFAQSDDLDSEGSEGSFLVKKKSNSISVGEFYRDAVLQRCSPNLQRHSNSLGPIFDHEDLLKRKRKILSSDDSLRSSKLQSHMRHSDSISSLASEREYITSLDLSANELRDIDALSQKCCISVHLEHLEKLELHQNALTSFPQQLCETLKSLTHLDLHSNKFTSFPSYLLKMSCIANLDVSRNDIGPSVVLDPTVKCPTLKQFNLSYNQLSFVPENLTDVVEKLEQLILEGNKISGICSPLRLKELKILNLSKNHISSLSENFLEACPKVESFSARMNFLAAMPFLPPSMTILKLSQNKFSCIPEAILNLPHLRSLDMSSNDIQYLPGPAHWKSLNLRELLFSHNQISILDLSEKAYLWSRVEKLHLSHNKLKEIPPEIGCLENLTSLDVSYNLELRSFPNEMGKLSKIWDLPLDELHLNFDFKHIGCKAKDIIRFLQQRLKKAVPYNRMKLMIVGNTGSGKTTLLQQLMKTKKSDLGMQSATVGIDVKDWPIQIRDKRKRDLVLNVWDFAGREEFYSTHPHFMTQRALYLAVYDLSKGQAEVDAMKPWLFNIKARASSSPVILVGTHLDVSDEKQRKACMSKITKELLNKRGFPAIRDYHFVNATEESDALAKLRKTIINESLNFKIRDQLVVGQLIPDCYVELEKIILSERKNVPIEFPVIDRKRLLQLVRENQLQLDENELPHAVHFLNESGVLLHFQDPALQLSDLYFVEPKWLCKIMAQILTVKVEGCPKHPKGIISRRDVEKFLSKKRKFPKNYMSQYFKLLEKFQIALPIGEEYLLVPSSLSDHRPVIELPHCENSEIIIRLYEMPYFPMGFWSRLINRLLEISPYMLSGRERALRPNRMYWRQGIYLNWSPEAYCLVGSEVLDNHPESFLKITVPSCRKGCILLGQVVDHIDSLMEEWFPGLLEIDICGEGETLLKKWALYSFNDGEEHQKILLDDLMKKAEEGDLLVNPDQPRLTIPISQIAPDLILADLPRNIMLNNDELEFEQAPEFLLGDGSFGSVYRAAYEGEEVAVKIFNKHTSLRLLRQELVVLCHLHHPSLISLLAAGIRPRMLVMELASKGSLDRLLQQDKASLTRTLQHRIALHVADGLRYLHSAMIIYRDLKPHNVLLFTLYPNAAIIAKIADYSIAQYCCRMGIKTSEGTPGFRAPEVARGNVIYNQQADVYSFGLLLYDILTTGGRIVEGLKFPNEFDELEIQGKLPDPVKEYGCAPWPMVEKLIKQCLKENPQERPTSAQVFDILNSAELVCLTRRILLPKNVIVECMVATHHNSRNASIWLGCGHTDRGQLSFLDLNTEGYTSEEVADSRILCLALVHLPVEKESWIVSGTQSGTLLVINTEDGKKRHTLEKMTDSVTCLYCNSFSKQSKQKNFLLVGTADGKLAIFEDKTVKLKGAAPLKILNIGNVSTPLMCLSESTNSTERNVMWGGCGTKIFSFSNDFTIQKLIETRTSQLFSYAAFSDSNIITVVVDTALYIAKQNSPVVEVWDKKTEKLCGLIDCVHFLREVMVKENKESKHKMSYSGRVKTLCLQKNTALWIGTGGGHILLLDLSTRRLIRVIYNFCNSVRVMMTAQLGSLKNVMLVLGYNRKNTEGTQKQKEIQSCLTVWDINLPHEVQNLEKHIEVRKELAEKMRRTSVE", "assay": "Inhibition of LRRK2 G2019S mutant (unknown origin) at 100 nM"}, "[12]": {"biological_target": "Tyrosine-protein kinase HCK (Homo sapiens) (UniProt P08631)", "assay": "Inhibition of HCK (unknown origin) at 100 nM"}, "[13]": {"biological_target": "Phosphorylase b kinase gamma catalytic chain, liver/testis isoform (Homo sapiens) (UniProt P15735)", "assay": "Inhibition of PHKgamma2 (unknown origin) at 100 nM"}, "[14]": {"biological_target": "Protein kinase C gamma type (Homo sapiens) (UniProt P05129)", "assay": "Inhibition of PKCgamma (unknown origin) at 100 nM"}, "[15]": {"biological_target": "Mitogen-activated protein kinase kinase kinase kinase 4 (Homo sapiens) (UniProt O95819)", "assay": "Inhibition of MAP4K4 (unknown origin) at 100 nM"}, "[16]": {"biological_target": "Dual specificity protein kinase CLK3 (Homo sapiens) (UniProt P49761)", "assay": "Inhibition of CLK3 (unknown origin) at 100 nM"}, "[17]": {"biological_target": "Serine/threonine-protein kinase TAO1 (Homo sapiens) (UniProt Q7L7X3)", "assay": "Inhibition of TAO1 (unknown origin) at 100 nM"}, "[18]": {"biological_target": "Sphingosine kinase 2 (Homo sapiens) (UniProt Q9NRA0)", "assay": "Inhibition of SPHK2 (unknown origin) at 100 nM"}, "[19]": {"biological_target": "Proto-oncogene tyrosine-protein kinase receptor Ret (Homo sapiens) (UniProt P07949)", "assay": "Inhibition of RET (unknown origin) at 100 nM"}, "[20]": {"biological_target": "Serine/threonine-protein kinase Sgk2 (Homo sapiens) (UniProt Q9HBY8)", "assay": "Inhibition of SGK2 (unknown origin) at 100 nM"}, "[21]": {"biological_target": "Insulin receptor-related protein (Homo sapiens) (UniProt P14616)", "assay": "Inhibition of IRR (unknown origin) at 100 nM"}, "[22]": {"biological_target": "SRSF protein kinase 3 (Homo sapiens) (UniProt Q9UPE1)", "assay": "Inhibition of MSSK1 (unknown origin) at 100 nM"}, "[23]": {"biological_target": "Ephrin type-B receptor 2 (Homo sapiens) (UniProt P29323)", "assay": "Inhibition of EPHB2 (unknown origin) at 100 nM"}, "[24]": {"biological_target": "Serine/threonine-protein kinase 26 (Homo sapiens) (UniProt Q9P289)", "assay": "Inhibition of MST4 (unknown origin) at 100 nM"}, "[25]": {"biological_target": "Ephrin type-B receptor 3 (Homo sapiens) (UniProt P54753)", "assay": "Inhibition of EPHB3 (unknown origin) at 100 nM"}, "[26]": {"biological_target": "Serine/threonine-protein kinase PAK 3 (Homo sapiens) (UniProt O75914)", "assay": "Inhibition of PAK3 (unknown origin) at 100 nM"}, "[27]": {"biological_target": "Serine/threonine-protein kinase 16 (Homo sapiens) (UniProt O75716)", "assay": "Inhibition of STK16 (unknown origin) at 100 nM"}, "[28]": {"biological_target": "Serine/threonine-protein kinase N1 (Homo sapiens) (UniProt Q16512)", "assay": "Inhibition of PRK1 (unknown origin) at 100 nM"}, "[29]": {"system": "Fibroblast growth factor receptor 3 (Homo sapiens), P22607 [K650E]", "assay": "Inhibition of FGFR3 K650E mutant (unknown origin) at 100 nM"}, "[30]": {"biological_target": "Serine/threonine-protein kinase Nek7 (Homo sapiens) (UniProt Q8TDX7)", "assay": "Inhibition of NEK7 (unknown origin) at 100 nM"}, "[31]": {"biological_target": "cAMP-dependent protein kinase catalytic subunit PRKX (Homo sapiens) (UniProt P51817)", "assay": "Inhibition of PRKX (unknown origin) at 100 nM"}, "[32]": {"biological_target": "cGMP-dependent protein kinase 1 (Homo sapiens) (UniProt Q13976)", "assay": "Inhibition of PKG1alpha (unknown origin) at 100 nM"}, "[33]": {"biological_target": "Serine/threonine-protein kinase 33 (Homo sapiens) (UniProt Q9BYT3)", "assay": "Inhibition of STK33 (unknown origin) at 100 nM"}, "[34]": {"biological_target": "Mitogen-activated protein kinase kinase kinase 2 (Homo sapiens) (UniProt Q9Y2U5)", "assay": "Inhibition of MEKK2 (unknown origin) at 100 nM"}, "[35]": {"biological_target": "Mitogen-activated protein kinase 11 (Homo sapiens) (UniProt Q15759)", "assay": "Inhibition of p38beta(unknown origin) at 100 nM"}, "[36]": {"biological_target": "Serine/threonine-protein kinase Nek6 (Homo sapiens) (UniProt Q9HC98)", "assay": "Inhibition of NEK6 (unknown origin) at 100 nM"}, "[37]": {"biological_target": "3-phosphoinositide-dependent protein kinase 1 (Homo sapiens) (UniProt O15530)", "assay": "Inhibition of PDK1 (unknown origin) at 100 nM"}, "[38]": {"biological_target": "Mitogen-activated protein kinase 12 (Homo sapiens) (UniProt P53778)", "sequence (P53778 whole entry)": "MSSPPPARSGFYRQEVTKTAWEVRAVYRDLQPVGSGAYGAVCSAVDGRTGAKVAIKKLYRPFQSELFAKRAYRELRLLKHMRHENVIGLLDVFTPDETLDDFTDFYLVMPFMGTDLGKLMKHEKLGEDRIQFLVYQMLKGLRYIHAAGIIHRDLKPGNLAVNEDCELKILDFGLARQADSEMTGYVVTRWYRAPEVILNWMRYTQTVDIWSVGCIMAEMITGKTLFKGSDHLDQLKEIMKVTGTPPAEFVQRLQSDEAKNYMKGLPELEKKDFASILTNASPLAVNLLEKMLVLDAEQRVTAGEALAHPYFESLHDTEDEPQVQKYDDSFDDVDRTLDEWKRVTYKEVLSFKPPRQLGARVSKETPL", "assay": "Inhibition of p38gamma(unknown origin) at 100 nM"}, "[39]": {"biological_target": "Ephrin type-A receptor 5 (Homo sapiens) (UniProt P54756)", "sequence (P54756 whole entry)": "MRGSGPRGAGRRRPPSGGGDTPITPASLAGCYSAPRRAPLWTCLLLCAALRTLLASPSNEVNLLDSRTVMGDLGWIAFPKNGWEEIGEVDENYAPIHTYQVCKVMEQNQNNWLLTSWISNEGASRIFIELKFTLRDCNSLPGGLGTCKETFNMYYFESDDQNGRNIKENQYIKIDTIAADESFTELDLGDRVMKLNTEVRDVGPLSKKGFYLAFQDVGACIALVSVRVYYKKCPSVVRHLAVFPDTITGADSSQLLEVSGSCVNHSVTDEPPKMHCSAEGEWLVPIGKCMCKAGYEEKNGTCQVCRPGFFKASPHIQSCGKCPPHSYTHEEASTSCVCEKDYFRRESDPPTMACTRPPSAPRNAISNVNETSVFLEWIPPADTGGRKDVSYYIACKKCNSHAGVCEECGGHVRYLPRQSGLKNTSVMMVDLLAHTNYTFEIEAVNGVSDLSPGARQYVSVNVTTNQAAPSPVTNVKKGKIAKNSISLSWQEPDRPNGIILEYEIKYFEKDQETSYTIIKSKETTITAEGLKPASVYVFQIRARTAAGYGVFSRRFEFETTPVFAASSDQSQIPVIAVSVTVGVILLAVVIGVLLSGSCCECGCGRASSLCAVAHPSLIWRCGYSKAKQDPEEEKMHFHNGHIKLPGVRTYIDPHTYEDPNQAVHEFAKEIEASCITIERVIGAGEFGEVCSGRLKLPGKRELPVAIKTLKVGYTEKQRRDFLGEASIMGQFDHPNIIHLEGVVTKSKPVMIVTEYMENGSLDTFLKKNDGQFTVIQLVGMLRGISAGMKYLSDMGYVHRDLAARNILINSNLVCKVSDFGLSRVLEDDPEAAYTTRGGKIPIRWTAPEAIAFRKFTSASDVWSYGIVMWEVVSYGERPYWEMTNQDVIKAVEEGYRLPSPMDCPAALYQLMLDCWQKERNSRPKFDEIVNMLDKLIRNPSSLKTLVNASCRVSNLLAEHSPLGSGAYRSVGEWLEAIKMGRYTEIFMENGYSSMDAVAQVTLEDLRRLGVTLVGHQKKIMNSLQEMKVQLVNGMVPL", "assay": "Inhibition of EPHA5 (unknown origin) at 100 nM"}, "[40]": {"biological_target": "Serine/threonine-protein kinase Sgk3 (Homo sapiens) (UniProt Q96BR1)", "assay": "Inhibition of SGK3 (unknown origin) at 100 nM"}, "[41]": {"biological_target": "Serine/threonine-protein kinase PLK3 (Homo sapiens) (UniProt Q9H4B4)", "assay": "Inhibition of PLK3 (unknown origin) at 100 nM"}, "[42]": {"biological_target": "Ribosomal protein S6 kinase alpha-3 (Homo sapiens) (UniProt P51812)", "assay": "Inhibition of RSK2 (unknown origin) at 100 nM"}, "[43]": {"biological_target": "Serine/threonine-protein kinase Nek2 (Homo sapiens) (UniProt P51955)", "assay": "Inhibition of NEK2 (unknown origin) at 100 nM"}},
  "data": [
    {"compound": "CC1(C)OCc2c(Nc3n[nH]c4c(Cl)cccc34)nc(-c3cn[nH]c3)nc21", "values": [
      {"measurement": "inhibition", "setting": "[1]", "value": 6.4, "unit": "%"}
    ]},
    {"compound": "CC1(C)OCc2c(Nc3n[nH]c4ccccc34)nc(-c3cn[nH]c3)nc21", "values": [
      {"measurement": "inhibition", "setting": "[2]", "value": 10.4, "unit": "%"},
      {"measurement": "inhibition", "setting": "[3]", "value": 90.6, "unit": "%"},
      {"measurement": "inhibition", "setting": "[4]", "value": -5.4, "unit": "%"},
      {"measurement": "inhibition", "setting": "[5]", "value": 8.4, "unit": "%"},
      {"measurement": "inhibition", "setting": "[6]", "value": 3.4, "unit": "%"},
      {"measurement": "inhibition", "setting": "[7]", "value": 1.2, "unit": "%"},
      {"measurement": "inhibition", "setting": "[8]", "value": 4.9, "unit": "%"},
      {"measurement": "inhibition", "setting": "[9]", "value": 97.2, "unit": "%"},
      {"measurement": "inhibition", "setting": "[10]", "value": 89.4, "unit": "%"},
      {"measurement": "inhibition", "setting": "[11]", "value": 16, "unit": "%"},
      {"measurement": "inhibition", "setting": "[12]", "value": 65.6, "unit": "%"},
      {"measurement": "inhibition", "setting": "[13]", "value": -2.9, "unit": "%"},
      {"measurement": "inhibition", "setting": "[14]", "value": 16.4, "unit": "%"},
      {"measurement": "inhibition", "setting": "[15]", "value": 51.3, "unit": "%"},
      {"measurement": "inhibition", "setting": "[16]", "value": 3.3, "unit": "%"},
      {"measurement": "inhibition", "setting": "[17]", "value": 0.7, "unit": "%"},
      {"measurement": "inhibition", "setting": "[18]", "value": -9.8, "unit": "%"},
      {"measurement": "inhibition", "setting": "[19]", "value": 98.2, "unit": "%"},
      {"measurement": "inhibition", "setting": "[20]", "value": 2.8, "unit": "%"},
      {"measurement": "inhibition", "setting": "[21]", "value": 12, "unit": "%"},
      {"measurement": "inhibition", "setting": "[22]", "value": -3.2, "unit": "%"},
      {"measurement": "inhibition", "setting": "[23]", "value": 15.3, "unit": "%"},
      {"measurement": "inhibition", "setting": "[24]", "value": 0.2, "unit": "%"},
      {"measurement": "inhibition", "setting": "[25]", "value": 20.1, "unit": "%"},
      {"measurement": "inhibition", "setting": "[26]", "value": 8.9, "unit": "%"},
      {"measurement": "inhibition", "setting": "[27]", "value": 29.5, "unit": "%"},
      {"measurement": "inhibition", "setting": "[28]", "value": 3.7, "unit": "%"},
      {"measurement": "inhibition", "setting": "[29]", "value": 38.8, "unit": "%"},
      {"measurement": "inhibition", "setting": "[30]", "value": 8.4, "unit": "%"},
      {"measurement": "inhibition", "setting": "[31]", "value": 8.4, "unit": "%"},
      {"measurement": "inhibition", "setting": "[32]", "value": 3.4, "unit": "%"},
      {"measurement": "inhibition", "setting": "[33]", "value": 4.2, "unit": "%"},
      {"measurement": "inhibition", "setting": "[34]", "value": 43.6, "unit": "%"},
      {"measurement": "inhibition", "setting": "[35]", "value": 8.7, "unit": "%"},
      {"measurement": "inhibition", "setting": "[36]", "value": 9.9, "unit": "%"},
      {"measurement": "inhibition", "setting": "[37]", "value": 3.4, "unit": "%"},
      {"measurement": "inhibition", "setting": "[38]", "value": 10.3, "unit": "%"},
      {"measurement": "inhibition", "setting": "[39]", "value": 15.7, "unit": "%"},
      {"measurement": "inhibition", "setting": "[40]", "value": 3.1, "unit": "%"},
      {"measurement": "inhibition", "setting": "[41]", "value": -5.4, "unit": "%"},
      {"measurement": "inhibition", "setting": "[42]", "value": -5.9, "unit": "%"},
      {"measurement": "inhibition", "setting": "[43]", "value": 7.7, "unit": "%"}
    ]}
  ]
}
